Results: patent publication US20150057351A1, “METHOD FOR TREATING NEUROPATHIC PAIN” (SUCAMPO AG, priority 2013, published 2015)
Marks after values point to notes of the source that are not given here.

Tests used:
[1] = test system: neuropathic pain model rats; assay: Pain threshold in neuropathic pain model rats (L4/L5 nerve root ligation, Dynamic Plantar Aesthesiometer); type: in vivo, rat; settings: for Pain threshold, During treatment 2 day: 2-day after start of administration; for Pain threshold, During treatment 4-day: 4-day after start of administration; for Pain threshold, During treatment 7-day: 7-day after start of administration; for Pain threshold, 10-day: 10-day after start of administration; for Pain threshold, Pre-treatment: baseline, before start of administration
[2] = test system: patients who have neuropathic pain around the low back and the lower limbs; assay: Pain-associated QOL by JOABPEQ (social life function) in patients with neuropathic pain; type: in vivo, human
Experimental: (§1) Compound A and corresponding placebo were injected to the patients who have neuropathic pain around the low back and the lower limbs twice daily for 14 days. For the first 3 days, 30 μg of Compound A was administered twice daily (60 μg/day), and then 60 μg of Compound A was administer twice daily (120 μg/day) for the next 11 days.
The patient's pain-associated quality of life (QOL) was assessed using Japan Orthopedic Association Back Pain Evaluation questionnaires (JOABPEQ). Patients self-evaluated their QOL before (Pre-Treatment), 8 days (Day 8) and 15 days (Day 15) after start treatment by Compound A or placebo.

[3] = test system: patients who have neuropathic pain around the low back and the lower limbs; assay: Pain intensity by Visual Analogue Scale (VAS), responder rate in patients with neuropathic pain; type: in vivo, human
Experimental: as §1
The intensity of pain was assessed using Visual Analogue Scale (VAS). A VAS is usually a horizontal line, 100 mm in length, anchored by no pain and awful pain at each end. The patient marks on the line the point that they feel represents their perception of their current state. The VAS score is determined by measuring in millimeters from the left hand end of the line to the point that the patient marks. VAS score was measured before (Pre-treatment) and 15-days (Day 15) after start treatment by Compound A or placebo.

[4] = 1 mg/kg oral twice a day for 7 days
[5] = 30 μg/kg intravenous twice a day for 7 days

SMILES | Pain threshold, During treatment 2 day [1, 4] [g] | Pain threshold, During treatment 4-day [1, 4] [g] | Pain threshold, During treatment 7-day [1, 4] [g] | Pain threshold, 10-day [1, 4] [g] | Pain threshold, Pre-treatment ([1]; 1 mg/kg oral twice a day) [g] | Pain threshold of the model paw compared with vehicle-control group ([1]; oral, 1 mg/kg twice a day for 7 days) | Pain threshold, During treatment 2 day [1, 5] [g] | Pain threshold, During treatment 4-day [1, 5] [g] | Pain threshold, During treatment 7-day [1, 5] [g] | Pain threshold, 10-day [1, 5] [g] | Pain threshold, Pre-treatment ([1]; 30 μg/kg intravenous twice a day, 4 days after surgery) [g] | Pain threshold of the model paw compared with vehicle-control group ([1]; intravenous, 30 μg/kg twice a day) | Change in score of social life function from pre-treatment, Day 15 ([2]; injected twice daily for 14 days: 60 μg/day for 3 days, then 120 μg/day for 11 days, Day 15, JOABPEQ) | Social life function (JOABPEQ factor) ([2]; injected twice daily for 14 days, vs placebo) | Change in score of social life function from pre-treatment, Day 8 ([2]; injected twice daily: 60 μg/day for 3 days, then 120 μg/day, Day 8, JOABPEQ) | Rate of responder ([3]; injected twice daily for 14 days: 60 μg/day for 3 days, then 120 μg/day for 11 days, VAS Day 15 vs pre-treatment) | Responder rate compared with placebo treated group ([3]; injected twice daily for 14 days, VAS Day 15)
CCCCC(F)(F)C(=O)CC[C@H]1CCC(=O)[C@@H]1CCCC/C=C/C(=O)O [Compound B, (E)-7-[(1R,2R)-2-(4,4-difluoro-3-oxooctyl)-5-oxocyclopentyl]hept-2-enoic acid] | 7.7 ± 0.3 | 8.2 | 8.6 ± 0.2 | 8.2 ± 0.2 | 6.8 ± 0.2 | statistically significantly increased |  |  |  |  |  |  |  |  |  |  | 
CCCCC(F)(F)C(=O)CC[C@H]1CCC(=O)[C@@H]1CCCCCCC(=O)O [Compound A, (−)-7-[(1R,2R)-2-(4,4-difluoro-3-oxooctyl)-5-oxocyclopentyl]heptanoic acid] |  |  |  |  |  |  | 6.8 ± 0.3 | 7.6 ± 0.3 | 8.1 ± 0.3 | 8.4 | 6.1 ± 0.2 | statistically significantly increased | 3.0 ± 2.8 (N = 20) | significantly improved | 2.7 ± 2.8 (N = 20) ^a | 94.4% (N = 18) * | significantly higher
